# Laboratory results as given in article PMC4558628 (International Journal of Clinical Pharmacology and …, 2014).
# Values joined by “and” are separate entries in the source; they are usually repeats but may differ in a detail not shown here. Equal values may be shown once. Read-outs that look alike come from different tables or passages of the source.
# Key:
# [1] = Study 1: effect of steady-state rifampin on single-dose pharmacokinetics of canagliflozin, M7 and M5; conditions: day 10 (with canagliflozin, fasted) vs day 9 (alone, fed)
# Description: (§2) For each study, the participants were enrolled at different individual study centers in the US. Study 1 (rifampin study, NCT01395927) was a single-center, open-label, fixed-sequence study to evaluate the effects of steady-state rifampin on the single-dose PK of canagliflozin. The study consisted of a screening period of 20 days (from day –21 to ‒2), a 14-day open-label period (from day –1 to 13), followed by an end-of-study period (5 – 7 days) consisting of follow-up assessments. Participants received canagliflozin 300 mg (tablet) q.d. on day 1 and rifampin 600 mg q.d. (as two 300 mg capsules) on days 4 – 9. On day 10, canagliflozin (300 mg) plus rifampin (600 mg) was administered, followed by rifampin alone (600 mg) administration on days 11 – 12. The study drugs were administered under a fasted state.
# (§3) Study 1: Venous blood (4 mL each) samples for the determination of canagliflozin, M7, and M5 plasma concentrations were collected pre-dose, and up to 72 hours post-dose (at 0.5, 1, 1.5, 2, 3, 4, 6, 8, 10, 12, 16, 24, 48, and 72 hours) on days 1 and 10. Urine samples for the determination of canagliflozin, M7, and M5 in urine were collected over the intervals of 0 – 4 hours, 4 – 12 hours, 12 – 24 hours, 24 – 48 hours, and 48 – 72 hours on days 1 and 10. Venous blood samples (2 mL each) for the determination of rifampin plasma concentrations were collected 2 hours after rifampin administration on days 9 and 10.
# (§4) Blood samples for canagliflozin, M7 and M5, rifampin and probenecid were centrifuged (10 minutes at 1,300 rpm), and the obtained plasma was stored at or below –20 °C. […] Urine samples were collected in polyethylene containers for the PK evaluation of canagliflozin, M7, and M5. Two aliquots (3 mL in study 1 and 2 mL in study 2) of urine sample were transferred into polyethylene tubes and were stored at or below –20 °C.
# (§5) The EDTA plasma samples were analyzed to determine the concentrations of canagliflozin with a validated [29, 30] liquid chromatography coupled to tandem mass spectrometry/mass spectrometry (LC-MS/MS) method (Frontage, Shanghai, China). A ^13C6 analogue of canagliflozin was used as internal standard (IS). Briefly, the sample was processed using a liquid-liquid extraction with tert-butyl methyl ether. The LC phase used a 5 cm × 4.6 mm column packed with XBridge C18 (Waters, Milford, MA, USA) with a mobile phase of ammonium acetate 0.01M (30%) and methanol (70%), and a flow rate of 1.2 mL/min. Quantification was achieved by MS/MS detection with an API4000, equipped with TurboIonSpray (TIS) interface (AB Sciex, Framingham, MA, USA), in the positive ion multiple reaction monitoring (MRM) mode. Canagliflozin and IS were monitored at mass transitions m/z 462.1 → 267.0 and m/z 468.1 → 273.0, respectively. The quantitation range was 5.0 – 10,000 ng/mL.
# (§6) Plasma (validated) and urine (qualified) concentrations of M7 and M5 were also determined using ^13C6-canagliflozin as IS at Frontage Laboratories (Shanghai) Co., Ltd. Samples underwent protein precipitation, with acetonitrile. The LC-MS/MS quantitation was done with the same equipment as for canagliflozin. The LC phase used a 5 cm × 4.6 mm column packed with XBridge C18 with a mobile phase of ammonium acetate 0.01M (pH 4) and methanol at ratio 40/60 (v/v) at a flow rate of 1.2 mL/min. After 3.5 minutes, the composition was changed to 98% methanol for 1 minute to flush the column. Using positive ion MRM on an API4000, equipped with TIS, both metabolites were measured at mass transition m/z 638.2 → 427. The quantitation range was 5.0 – 10,000 ng/mL for both metabolites in plasma, and 100 – 100,000 ng/mL in urine.
# (§7) Pharmacokinetic analyses of plasma and urine concentrations was done by non-compartmental method using validated WinNonlin® software Version 5.2.1 (Pharsight Corporation, Mountain View, CA, USA).
# [2] = parameters: method as in PMID 21189429, PMID 6643696; conditions: under fed conditions; cited from earlier work
# [3] = Study 1 safety: treatment-emergent adverse events; conditions: drug administered alone; n = 14
# Description: as §2
# (§8) Safety and tolerability were monitored throughout all three studies by evaluation of the incidence and the type of treatment-emergent adverse events (TEAEs), and change from baseline in: clinical laboratory tests (including hematology, serum chemistry, urinalysis, and urine uric acid analysis (study 2 only)), physical examination of all body systems except genitalia and breast (by a study physician), body weight, height, and BMI, vital signs (including systolic and diastolic blood pressure, heart rate, and body temperature), and 12-lead electrocardiographys (ECGs) (including cardiac rhythm, waveform morphology, and interval duration).
# (§9) Results of the clinical laboratory parameters and vital signs were summarized using descriptive statistics.
# [4] = human, in vivo
# Method: (§10) The study consisted of a 3-week screening period (from day –22 to –2), an 11 day open-label period (from day –1 to 10), followed by an end-of-study period consisting of 2 follow-up assessments occurring from 7 to 10 days and again from 14 to 18 days after the last dose of the study drug administration. Canagliflozin 300 mg (tablet) q.d. was administered on days 1 through 8 under fasted state.
# Study 3: Venous blood (4 mL each) samples for the determination of canagliflozin plasma concentration were collected at pre-dose on days 2, 3, 4, 5, and 6, and at pre-dose and up to 24 hours post-dose (at 0.5, 1, 1.5, 2, 3, 4, 5, 6, 10, 12, 16, and 24 hours) on days 7 and 8.
# as §4, §5
# Pharmacokinetic analyses of plasma and urine concentrations was done by non-compartmental method using validated WinNonlin® software Version 5.2.1 (Pharsight Corporation, Mountain View, CA, USA). […] The assessed pharmacokinetic parameters of canagliflozin, M7, and M5 in study 2, and of canagliflozin in study 3 were: Cmax during a dosing interval at steady state (Cmax.ss), observed plasma concentration before dosing or at the end of a dosing interval (Ctrough; only for canagliflozin), tmax during a dosing interval at steady state (tmax.ss), and AUC during a dosing interval at steady state (AUCτ.ss). Additionally, M/P ratio (corrected for the differences in molecular weights) for Cmax.ss, AUCτ.ss, Ae during a collection interval (Aet1-t2), %Ae dose, and CLR were calculated for study 2.
# A mixed-effects model was fitted to the log-transformed data of AUC or Cmax as dependent variables, treatment (with or without coadministration of the other drug) as a fixed effect, and participant as a random effect. The estimated least-square means and intra-participant variability from the mixed-effect model was used to construct 90% confidence interval (CI) for the difference in means of AUC or Cmax on the log-scale between the two treatments. The limits of the CIs were retransformed using antilogarithms to obtain the 90% CI for the ratio of the geometric mean AUC or Cmax.
# [5] = test system: P-glycoprotein (P-gp); parameters: method as in earlier work; conditions: in vitro experiments; cited from earlier work
# [6] = Study 2: effect of multiple-dose probenecid on steady-state pharmacokinetics of canagliflozin, M7 and M5; format: in vivo, human; conditions: for trough plasma concentration, mean (SD): canagliflozin 300 mg q.d.; for % Ae (dose): cumulative amount excreted into the urine: corrected for molecular weight when necessary; for tmax.ss: median (range)
# Method: (§1) The study consisted of a 19-day screening period (from day –21 to –3), a 20 day open-label period (from day –2 to 18), followed by an end-of-study period (7 – 10 days). […] Participants received study drugs under fasted state on days 14 and 17. On all other study days, participants received a standardized meal 1 hour after the study drug administration. Diet was standardized in order to stabilize uric acid levels, and participants were advised not to consume highly purine-enriched foods.
# [7] = test system: OATP1B1; conditions: in vitro studies; no reference given; cited from earlier work
# [8] = in vivo
# Description: as §2, §8, §9
# [9] = test system: OAT3; conditions: no reference given; cited from earlier work
# [10] = Study 3 safety: treatment-emergent adverse events; format: in vivo, human
# Method: as §10, §8
# [11] = in vivo; remark: listed apart in the source
# Description: as §2, §3, §4, §5, §6, §7
# [12] = Safety and tolerability across the three studies; format: in vivo, human
# Description: as §8, §9
# [13] = parameters: method as in PMID 22226086, PMID 22492586; conditions: canagliflozin 300 mg b.i.d., cited from earlier work
# [14] = parameters: method as in PMID 23670707; conditions: cited from earlier work
# [15] = test system: OAT1; conditions: in vitro studies; no reference given; cited from earlier work
# [16] = test system: multidrug resistance protein 2 (MRP2); parameters: method as in earlier work; conditions: in vitro experiments; cited from earlier work
# [17] = Study 2 safety: treatment-emergent adverse events; format: in vivo, human
# Method: as §1
# [18] = test system: P-gp; parameters: method as in unpublished data; conditions: MDR1-expressing MDCK cells; ref unpublished data; cited from earlier work
# [19] = canagliflozin + probenecid (test), geometric mean, n = 11
# [20] = canagliflozin + probenecid vs canagliflozin alone
# [21] = canagliflozin + probenecid, arithmetic mean (SD)
# [22] = canagliflozin alone (reference), geometric mean, n = 11
# [23] = canagliflozin alone, arithmetic mean (SD)
# [24] = probenecid coadministration vs canagliflozin alone
# [25] = canagliflozin and probenecid coadministration, 1/12
compound,measurement,setting,value
CO[C@H]1/C=C/O[C@@]2(C)Oc3c(C)c(O)c4c(O)c(c(/C=N/N5CCN(C)CC5)c(O)c4c3C2=O)NC(=O)/C(C)=C\C=C\[C@H](C)[C@H](O)[C@@H](C)[C@@H](O)[C@@H](C)[C@H](OC(C)=O)[C@@H]1C [rifampin],increase in plasma rifampin concentration at 2 hours,[1],24%
same,reduction of rifampin absorption,[2],30%
same,participants with TEAEs,[3],50%
Canagliflozin,AUCτ.ss,[4],"22,243.50 ng×h/mL"
same,Cmax.ss,[4],"2,864.03 ng/mL"
same,tmax.ss,[4],2.00 (1.00 – 3.00) h
same,AUCτ.ss,[4]; 300 mg,"22,158 (4203) ng×h/mL"
same,Cmax.ss,[4]; 300 mg,"2,887 (735) ng/mL"
same,substrate of P-glycoprotein (P-gp),[5],substrate
same,AUC∞.ss,"[6]; canagliflozin 300 mg q.d. + probenecid 500 mg b.i.d. (day 17), arithmetic mean (SD), n = 12","26,225 (5261) ng×h/mL"
same,AUC∞.ss,"[6]; canagliflozin 300 mg q.d. alone (day 14), arithmetic mean (SD), n = 12","21,861 (4290) ng×h/mL"
same,"trough plasma concentration, mean (SD)",[6]; day 13,381 (110) ng/mL
same,"trough plasma concentration, mean (SD)",[6]; day 14,366 (117) ng/mL
same,"trough plasma concentration, mean (SD)",[6]; day 15,358 (110) ng/mL
same,AUC∞.ss,[6]; [19],"26,011.71 ng×h/mL"
same,Cmax.ss,[6]; [19],"3,008.66 ng/mL"
same,"AUCτ.ss, estimated ratio (test/reference) of geometric means (90% CI)",[6]; [20],120.74 (116.37; 125.27) %
same,"AUC∞.ss, estimated ratio (test/reference) of geometric means (90% CI)",[6]; [20],120.74 (116.37; 125.27) %
same,"Cmax.ss, estimated ratio (test/reference) of geometric means (90% CI)",[6]; [20],113.37 (100.37; 128.06) %
same,"CLR (renal clearance, Ae24/AUC24)",[6]; [21],0.0569 (0.00944) L/h
same,% Ae (dose): cumulative amount excreted into the urine,[6]; [21],0.495 (0.136) % dose
same,tmax.ss,[6]; canagliflozin + probenecid,1.67 (1.42 – 5.92) h
same,AUC∞.ss,[6]; [22],"21,543.95 ng×h/mL"
same,Cmax.ss,[6]; [22],"2,653.85 ng/mL"
same,"CLR (renal clearance, Ae24/AUC24)",[6]; [23],0.0868 (0.0297) L/h
same,% Ae (dose): cumulative amount excreted into the urine,[6]; [23],0.609 (0.217) % dose
same,tmax.ss,[6]; canagliflozin alone,1.92 (1.42– 3.92) h
same,Cmax.ss,"[6]; plasma, canagliflozin 300 mg q.d. + probenecid 500 mg b.i.d. (day 17), arithmetic mean (SD), n = 12","3,105 (680) ng/mL"
same,Cmax.ss,"[6]; plasma, canagliflozin 300 mg q.d. alone (day 14), arithmetic mean (SD), n = 12","2,699 (814) ng/mL"
same,decrease in mean CLR,[6]; [24],~ 34%
same,increase in AUCτ.ss (systemic exposure),[6]; [24],21%
same,increase in Cmax.ss,[6]; [24],13% and ~ 13%
same,substrate of OATP1B1,[7],not a substrate
same,participants with TEAEs,[8],21.4%
same,participants with abdominal discomfort,[8],7.1%
same,participants with polyuria,[8],7.1%
same,participants with thirst,[8],7.1%
same,substrate of OAT3,[9],not a substrate
same,participants with diarrhea,"[10]; canagliflozin alone, 2/18",11.1%
same,participants with oropharyngeal pain,"[10]; canagliflozin alone, 2/18",11.1%
same,participants reporting TEAEs,"[10]; canagliflozin alone, 6/18",33.3%
same,participants with flushing,"[10]; canagliflozin and cyclosporine A coadministration, 15/18",83.3%
same,participants reporting TEAEs,"[10]; canagliflozin and cyclosporine A coadministration, 17/18",94.4%
same,AUC∞,[11]; human,"20,938.95 ng×h/mL"
same,"CLR (renal clearance, Ae0–72/AUC0–72h)",[11]; human,0.0849 (0.0318) L/h
same,Cmax,[11]; human,"2,358.29 ng/mL"
same,t1/2,[11]; human,12.9 (2.42) h
same,tmax,[11]; human,2.00 (1.00 – 4.00) h
same,AUC∞,"[11]; human, 300 mg","21,695 (6151) ng×h/mL"
same,Cmax,"[11]; human, 300 mg","2,474 (805) ng/mL"
same,Ae (% dose): cumulative amount excreted into the urine,[11],0.578 (0.180) % dose
same,"changes in clinical laboratory values, vital signs, physical examinations, or ECGs",[12]; any of the three studies,"No consistent, clinically relevant changes"
same,"deaths, serious TEAEs, or discontinuations due to TEAEs",[12]; any of the three studies,"No deaths, serious TEAEs, or discontinuations due to TEAEs"
same,tolerability,"[12]; canagliflozin 300 mg coadministered with rifampin, probenecid, and cyclosporine A, healthy participants",generally well-tolerated
same,tolerability,[13]; 2-week multiple-dose study and 12-week dose-ranging study in T2DM,well-tolerated
same,plasma AUCτ.ss higher than with the 300 mg q.d. dose,[13],93%
same,plasma Cmax.ss higher than with the 300 mg q.d. dose,[13],32%
same,canagliflozin dose excreted in urine as unchanged canagliflozin,[14],less than 1%
same,substrate of OAT1,[15],not a substrate
same,substrate of MRP2,[16],substrate
same,participants with headache,"[17]; canagliflozin alone, 2/14",14.3%
same,participants with ≥ 1 TEAE,"[17]; canagliflozin alone, 4/14",28.6%
same,participants with abdominal discomfort,[17]; [25],8.3%
same,participants with diarrhea,[17]; [25],8.3%
same,participants with headache,[17]; [25],8.3%
same,participants with muscle twitching,[17]; [25],8.3%
same,participants with musculoskeletal pain,[17]; [25],8.3%
same,participants with pruritis,[17]; [25],8.3%
same,participants with urethral pain,[17]; [25],8.3%
same,participants with ≥ 1 TEAE,"[17]; canagliflozin and probenecid coadministration, 5/12",41.7%
same,P-gp substrate status,[18],P-gp substrate
same,basal-to-apical/apical-to-basal efflux ratio,[18],2.0
